Measurements taken from PMC4912613, “A broad analysis of resistance development in the malaria parasite” (Nature Communications, 2016).
pEC50: −log10 of the molar value. Where two headings read alike, the source gives them in different places.

What was measured:
[1] = test system: Dd2; assay: Cross-resistance EC50 assay, Dd2 parent; type: cell-based, Plasmodium falciparum; conditions: Plasmodium falciparum; for EC50: read-out: Dd2 (PARENT) EC50 (µM) Average EC50
From the text: Multidrug resistance alleles, including mutations in P. falciparum chloroquine resistance transporter (pfcrt) and P. falciparum multi-drug resistance transporter 1 (pfmdr1) are very common in field isolates. Therefore, we sought to assess the degree to which pre-existing resistance alleles would contribute to a loss of potency for this diverse collection of small molecule compounds. Fifteen clones derived from three main parent lines were chosen to maximize diversity in mutated pathways and genetic backgrounds, thus representing the variety of resistance seen in the field: 3D7 (ref. [23]), W2 (ref. [24]) or Dd2 (ref. [25]). The 3D7 line originates from the clone of a Netherlands clinical isolate strain[23][26] and is generally considered to be drug sensitive, though it does convey resistance to sulfadoxine. Conversely, W2 (ref. [24], [27]) and Dd2 (ref. [25]) are multi-drug-resistant lines originating from the Indochina III/CDC isolate, which contain point mutations in pfcrt as well as amplifications in pfmdr1 and GTP cyclohydrolase.
(§1) To evaluate potential overlapping activity against known antimalarial drug targets, we performed dose-response studies with each compound against our assembled set of drug-resistant lines and their corresponding parents, in an asexual blood stage proliferation assay (Table 1). Comparisons were made to the drug-sensitive strain 3D7 when a parent was unavailable (TM90C2A, W2 and Dd2). As laboratories conducted EC50 assays with different strains and protocols, all comparisons were made between assays from the same laboratory and under the same assay conditions. Compounds displaying >5-fold EC50 shifts relative to the parent or sensitive strain were flagged as having potentially non-novel targets. Average fold shifts per strain ranged from 0.82 to 2.34, with a median of 1.23 indicating there was not common resistance to any one resistant clone. No resistance patterns were observed when classifying the compounds based on chemical structure, but this was not surprising given the diversity of compounds chosen. On the other hand, given that these confirmed compounds were derived from larger unconfirmed hit lists to which some filtration criteria may have been applied (for example, elimination of obvious dihydrofolate reductase inhibitors[32]), some[10][11][12][13] pre-existing bias may exist in the set. […]
(§2) Alternatively, a SYBR Green-based proliferation approach was used for the 72-h assay, as previously described. Briefly, a culture of either synchronized or asynchronous parasitized RBCs (0.3% parasitemia and 4% haematocrit) in screening medium (identical to supplemented medium above except no serum was added) was exposed to serial drug dilutions. Plates were incubated at 37 °C and gassed with 93% N2, 4% CO2 and 3% O2 for 72 h. Following incubation, 10 × SYBR Green I (Invitrogen; supplied in 10,000 × concentration) in lysis buffer ([…], 5 mM EDTA, 0.16% Saponin wt per vol and 1.6% Triton X vol per vol) was added to the wells and the plates were incubated overnight at room temperature before plate reading. EC50 assays were repeated three times, taking the average EC50 value from each assay set, and removing any outliers using a single iteration of Grubbs' test, eliminating values with z-scores above the critical z-value (α=0.05). The raw EC50 values for synchronized parasites assayed in a 384-well format are listed in Supplementary Data 4. The raw EC50 values for asynchronous parasites assayed in a 96 or 1536-well format are listed in Supplementary Data 5.
(§3) EC50 values for each strain were compared with those of the corresponding parent strain to determine fold-shift changes and identify resistance. To minimize the cause variance between assays, all comparisons were conducted between strains assayed under identical conditions. A one-way ANOVA followed by a Dunnet's post-test was conducted in GraphPad Prism to identify significant changes between the parent and resistant strain.

[2] = test system: ATQ-R4 (cytb M133I and L144S, parent 3D7); assay: Cross-resistance EC50 assay, ATQ-R4; type: cell-based, Plasmodium falciparum; conditions: for EC50: Plasmodium falciparum, 3D7, SYBR green 72 hour assay, asynchronized parasites, 96-well or 1536-well format, ATQ-R4
From the text: as §1, §2, §3

[3] = test system: Stage 5 gametocytes from P. falciparum NF54; assay: Late-stage (stage V) gametocyte survival assay, MitoTracker; type: cell-based, Plasmodium falciparum; conditions: for pEC50: Plasmodium falciparum, read-out: Stage 5 Gametocyte EC50; for EC50 fold shift compared to asexual stage: Stage 5 Gametocyte EC50: gametocyte EC50 / 3D7 EC50
Procedure, shortened: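 Synchronized P. falciparum NF54 stage V gametocytes were exposed to compound (1.25 μM or 12.5 μM) for 72 h. MitoTracker Red CMXRos (500 nM final) was then added with saponin to lyse RBCs, and plates were imaged by high-content fluorescence. The readout was the number of metabolically active gametocytes per well.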

[4] = test system: P. berghei exoerythrocytic forms; assay: Liver-stage P. berghei hepatocyte invasion and development assay (luminescence, HepG2); type: cell-based, Plasmodium berghei; conditions: for pEC50: Plasmodium berghei, HepG2, 48 h, read-out: Liver Stage EC50; for EC50 fold shift compared to asexual stage: Liver Stage EC50: liver stage EC50 / 3D7 EC50
Procedure, shortened: (§4)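 Duplicate 12-point dose curves, starting at 5 μM or 50 μM, gave EC50s for both parasite and host toxicity. Compound was added to human HepG2 hepatocytes 2 h before infection with freshly dissected P. berghei sporozoites. Surviving liver-stage forms were quantified by luminescence after 48 h.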

[5] = test system: hsp90 (D88Y, parent Dd2); assay: Cross-resistance EC50 assay, hsp90; type: cell-based; conditions: Plasmodium falciparum, SYBR green 72 hour assay, synchronized parasites, 384-well format
From the text: as §1, §2, §3

[6] = test system: HepG2; assay: Hepatocyte toxicity; type: cell-based, human; conditions: for Hepatocyte Toxicity: HepG2; for EC50 fold shift compared to asexual stage: Hepatocyte Toxicity: hepatocyte toxicity / 3D7 EC50; for Liver Stage / Hepatocyte Toxicity: toxicity fold shift for the liver stage (hepatocyte toxicity vs liver stage EC50)
Procedure, shortened: as §4

[7] = test system: CYTb-G131S (cytb G131S, parent Dd2); assay: Cross-resistance EC50 assay, CYTb-G131S; type: cell-based, Plasmodium falciparum; conditions: for pEC50: Plasmodium falciparum, SYBR green 72 hour assay, synchronized parasites, 384-well format
From the text: as §1, §2, §3

[8] = test system: ATQ-R5 (cytb F267V, parent 3D7); assay: Cross-resistance EC50 assay, ATQ-R5; type: cell-based, Plasmodium falciparum; conditions: Plasmodium falciparum, 3D7; SYBR green 72 hour assay; asynchronized parasites; 96-well or 1536-well format; ATQ-R5
From the text: as §1, §2, §3

[9] = DD2, 72 h, read-out: Dd2 (PARENT) Average EC50

SMILES | pEC50 [1, 9] | EC50 ([1]; DD2, 72 h) | EC50 [2] | pEC50 ([3]; P. falciparum NF54, 72 h) | EC50 fold shift compared to asexual stage: Stage 5 Gametocyte EC50 [3] | pEC50 ([4]; P. berghei sporozoites) | EC50 fold shift compared to asexual stage: Liver Stage EC50 [4] | pEC50 ([5]; DD2, HSP90 strain) | Hepatocyte Toxicity [6] | EC50 fold shift compared to asexual stage: Hepatocyte Toxicity [6] | Liver Stage / Hepatocyte Toxicity [6] | pEC50 ([7]; DD2, CYTb:G131S strain) | EC50 [8] | pEC50 ([1]; DD2, read-out: EC50, Dd2 parent) | EC50 fold-shift, ATQ-R4 vs parent ([2]; resistance, parent 3D7) | pEC50 ([5]; strain HSP90 (Dd2 parent)) | pEC50 ([7]; strain CYTb:G131S (Dd2 parent)) | fold change in EC50, CYTb-G131S vs parent ([7]; resistance, parent Dd2) | pEC50 ([3]; NF54, 72 h) | pEC50 [4]
CN(C)CCCNCc1ccc(-c2ccc(Cl)c(Cl)c2)o1 [MMV673964] | 6.37 | 1.12 µM | 0.163 µM | 5.95 | 1.86 | 5.05 | 14.81 | 6.49 | 19.83 µM | 32.67 | 2.21 | 6.44 | 0.108 µM | – | – | – | – | – | – | –
Cc1c(C)n(Cc2ccc(F)cc2)c2ccc(C(=O)NCc3ccco3)cc12 [MMV008149] | 7.05 | 1.63 µM | 3.88 µM | < 5.90 | 1.62 | 6.05 | 1.15 | – | > 5 µM | > 6.5 | > 5.6 | – | 1.58 µM | 6.31 | Statistically significant resistance | 6.72 | < 5.30 | > 38 fold | – | –
Nc1ccc(-c2nc3cc(Cc4ccc5[nH]c(-c6ccc(N)cc6)nc5c4)ccc3[nH]2)cc1 [MMV665943] | 6.39 | 0.488 µM | 0.045 µM | 6.39 | 1.29 | 5.23 | 18.84 | – | 14.29 µM | 45.22 | 2.40 | – | 0.042 µM | – | – | 6.37 | 6.39 | – | – | –
COc1ccc(C(=O)C2CC2c2ccc(Cl)cc2)cc1 (stereo not shown) [MMV665924] | 5.92 | 1.58 µM | 3.41 µM | < 5.90 | > 1.5 | < 5.30 | > 6 | – | > 5 µM | > 6 | – | – | 3.63 µM | – | – | 5.77 | 5.72 | – | – | –
c1cncc(-c2cc(N3CCC(CN4CCOCC4)CC3)nc(-c3ccncc3)n2)c1 [MMV668399] | 7.06 | 0.984 µM | 0.332 µM | < 4.90 | – | 5.15 | – | – | > 50 µM | – | > 7 | – | 0.339 µM | – | – | 7.05 | 6.86 | – | – | –
Cc1ccc(S(=O)(=O)n2cc(-c3ccnc(N)c3)c3cc(Br)cnc32)cc1 [MMV024114] | 6.12 | 1.64 µM | 1.99 µM | < 4.90 | > 47 | 5.23 | 22.40 | – | 9.39 µM | 35.43 | 1.58 | – | 1.72 µM | – | – | 6.08 | 5.78 | – | – | –
Cl.c1ccc2c(NCCCCCCNc3c4c(nc5ccccc35)CCCC4)c3c(nc2c1)CCCC3 [MMV019555] | 6.63 | 0.241 µM | 0.08 µM | – | – | – | – | – | 4.811 µM | – | 15.06 | – | 0.086 µM | – | – | 6.70 | 6.63 | – | 6.35 | 6.50
CCCN(CCC)CC(O)COc1ccccc1C(=O)Nc1ccccc1 (stereo not shown) [MMV006455] | 5.92 | 0.408 µM | 0.674 µM | < 5.90 | > 2.3 | < 5.30 | > 9.4 | – | > 5 µM | > 9.4 | – | – | 0.548 µM | – | – | 5.69 | 6.50 | – | – | –
Cc1ccc(Cn2c(N3CCC(C(=O)NCc4cccs4)CC3)nc3ccccc32)cc1 [MMV007564] | 6.41 | 0.342 µM | 1.05 µM | 5.66 | 3.81 | 5.82 | 2.60 | – | > 6.6 µM | > 57 | > 21 | – | 1.33 µM | – | – | 6.15 | 5.89 | – | – | –
Nc1ncc(-c2cn[nH]c2)cc1-c1nc2ccc(F)cc2[nH]1 [MMV023367] | 6.18 | 1.96 µM | 1.67 µM | 5.18 | 22.12 | 6.21 | 2.02 | – | 4.228 µM | 14.00 | 6.92 | – | 1.53 µM | – | – | 6.31 | 6.15 | – | – | –
O=C(NC(c1ccccc1)c1ccc2cccnc2c1O)c1ccccc1 (stereo not shown) [MMV666080] | 6.37 | 0.886 µM | 0.746 µM | 5.14 | 8.53 | 6.33 | 0.55 | – | 1.309 µM | 1.55 | 2.82 | – | 0.756 µM | – | – | 6.19 | 6.40 | – | – | –
CCCOCc1cc(CN2CCN(c3cccc(Cl)c3)CC2)c(O)c2ncccc12 [MMV000787] | 6.23 | 1.59 µM | 1.44 µM | 5.25 | – | 6.22 | – | – | 2.43 µM | – | 4.05 | – | 1.43 µM | – | – | 6.32 | 6.20 | – | – | –
